Assay results published in patent publication US20250228239A1, “MOLECULES HAVING PESTICIDAL UTILITY, AND INTERMEDIATES, COMPOSITIONS, AND PROCESSES, RELATED THERETO” (priority 2024, published 2025).

Columns and labels:
Type in all cases: in vivo
[1] = test system: Cabbage Looper (Trichoplusia ni, TRIPNI); assay: Bioassays on Cabbage Looper (CL), 128-well diet tray assay; conditions: Trichoplusia ni; Table ABC: Biological Results; species CL; read-out: CL
Summary of the method: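 Activity is mean percent mortality over eight wells of second-instar larvae exposed to diet treated at 50 μg/cm^2 for 5–7 days at 25° C.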

[2] = test system: Yellow Fever Mosquito (Aedes aegypti, AEDSAE); conditions: Table ABC: Biological Results; species YFM
Summary of the method: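 Mortality after 3 days at room temperature is the read-out, scored well by well and converted to a rating. Test molecules came from 4000 ppm stocks in DMSO, further diluted in 90:10 water/acetone, and were exposed to roughly 1-day-old larvae suspended in liver-powder water.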

[3] = test system: Beet Armyworm (Spodoptera exigua, LAPHEG); assay: Bioassays on Beet Armyworm (BAW), 128-well diet tray assay; conditions: Spodoptera exigua; Table ABC: Biological Results; species BAW; read-out: BAW
Summary of the method: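 Eight diet wells per compound were treated at 50 μg/cm^2 (acetone-water 90:10), dried, then infested with 1–5 second-instar larvae each. After five to seven days at 25 °C under 14:10 photoperiod, mortality was scored and averaged across wells.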

| Structure (SMILES) | pest or weed control at 50 µg/cm2 [1] | YFM [2] | pest or weed control at 50 µg/cm2 [3] |
| --- | --- | --- | --- |
| CNc1c(F)ccc(N(C)C(=O)c2cc(NC(=O)[C@H]3[C@H](c4ccc(Cl)c(Cl)c4)C3(Cl)Cl)ccc2Cl)c1F (relative stereo) [F1071, trans-2-Chloro-5-(2,2-dichloro-3-(3,4-dichlorophenyl)cyclopropane-1-carboxamido)-N-(2,4-difluoro-3-(methylamino)phenyl)-N-methylbenzamide] | 50 to 100% | A (80–100) | 50 to 100% |
| Nc1c(F)ccc(NC(=O)c2cc(NC(=O)[C@H]3[C@H](c4cc(Br)cc(C(F)(F)F)c4)C3(Cl)Cl)ccc2Cl)c1F (relative stereo) [F1075, trans-N-(3-Amino-2,4-difluorophenyl)-5-(3-(3-bromo-5-(trifluoromethyl)phenyl)-2,2-dichlorocyclopropane-1-carboxamido)-2-chlorobenzamide] | 50 to 100% | A (80–100) | 50 to 100% |
| CC(C)(C)OC(=O)Nc1c(F)ccc(NC(=O)c2cc(NC(=O)[C@H]3[C@H](c4ccc(Cl)c(C(F)(F)F)c4)C3(Cl)Cl)ccc2Cl)c1F (relative stereo) [F1077, trans-tert-Butyl-(3-(2-chloro-5-(2,2-dichloro-3-(4-chloro-3-(trifluoromethyl)phenyl)cyclopropane-1-carboxamido)benzamido)-2,6-difluorophenyl)carbamate] | 50 to 100% | A (80–100) | 50 to 100% |
| CC(C)(C)OC(=O)Nc1c(F)ccc(NC(=O)c2cc(NC(=O)[C@H]3[C@H](c4ccc(F)c(C(F)(F)F)c4)C3(Cl)Cl)ccc2Cl)c1F (relative stereo) [F1078, trans-tert-Butyl-(3-(2-chloro-5-(2,2-dichloro-3-(4-fluoro-3-(trifluoromethyl)phenyl)cyclopropane-1-carboxamido)benzamido)-2,6-difluorophenyl)carbamate] | 50 to 100% | A (80–100) | 50 to 100% |
| CC(=O)OCN(C(=O)c1cc(NC(=O)[C@H]2[C@H](c3cc(Cl)cc(Cl)c3)C2(Cl)Cl)ccc1Cl)c1ccc(F)cc1C#N (relative stereo) [F1084, trans-(2-Chloro-N-(2-cyano-4-fluorophenyl)-5-(2,2-dichloro-3-(3,5-dichlorophenyl)cyclopropane-1-carboxamido)benzamido)methyl acetate] | 50 to 100% | A (80–100) | 50 to 100% |
| O=C(Nc1ccc(F)cc1F)c1cc(NC(=O)[C@H]2[C@H](c3ccc(I)cc3)C2(Cl)Cl)ccc1Cl (relative stereo) [F1087, trans-2-Chloro-5-(2,2-dichloro-3-(4-iodophenyl)cyclopropane-1-carboxamido)-N-(2,4-difluorophenyl)benzamide] | 50 to 100% | A (80–100) | 50 to 100% |
| O=C(Nc1ccc(F)cc1F)c1cc(NC(=O)[C@H]2[C@H](c3cccc(I)c3)C2(Cl)Cl)ccc1Cl (relative stereo) [F1088, trans-2-Chloro-5-(2,2-dichloro-3-(3-iodophenyl)cyclopropane-1-carboxamido)-N-(2,4-difluorophenyl)benzamide] | 50 to 100% | A (80–100) | 50 to 100% |
| O=C(Nc1ccc(F)cc1F)c1cc(NC(=O)[C@H]2[C@H](c3cccc(S(F)(F)(F)(F)F)c3)C2(Cl)Cl)ccc1Cl (relative stereo) [F1090, trans-2-Chloro-5-(2,2-dichloro-3-(3-(pentafluoro-λ^6-sulfanyl)phenyl)cyclopropane-1-carboxamido)-N-(2,4-difluorophenyl)benzamide] | 50 to 100% | A (80–100) | 50 to 100% |
| O=C(Nc1ccc(F)cc1F)c1cc(NC(=O)[C@H]2[C@@H](c3cc(F)cc(Br)c3F)C2(Cl)Cl)ccc1Cl (relative stereo) [F1094, cis-5-(3-(3-Bromo-2,5-difluorophenyl)-2,2-dichlorocyclopropane-1-carboxamido)-2-chloro-N-(2,4-difluorophenyl)benzamide] | 50 to 100% | A (80–100) | 50 to 100% |
| COc1ccc(CNc2c(F)ccc(NC(=O)c3cc(NC(=O)[C@H]4[C@H](c5ccc(F)c(C(F)(F)F)c5)C4(Cl)Cl)ccc3Cl)c2F)cc1 (relative stereo) [F1096, trans-2-Chloro-5-(2,2-dichloro-3-(4-fluoro-3-(trifluoromethyl)phenyl)cyclopropane-1-carboxamido)-N-(2,4-difluoro-3-((4-methoxybenzyl)amino)phenyl)benzamide] | 50 to 100% | A (80–100) | 50 to 100% |
| O=C(Nc1ccc(F)cc1)c1c(F)ccc(NC(=O)[C@H]2[C@H](c3ccc(F)c(Cl)c3)C2(Cl)Cl)c1F (relative stereo) [F1100, trans-3-(2,2-Dichloro-3-(3-chloro-4-fluorophenyl)cyclopropane-1-carboxamido)-2,6-difluoro-N-(4-fluorophenyl)benzamide] | 50 to 100% | A (80–100) | 50 to 100% |
| O=C(Nc1ccccc1)c1c(Cl)ccc(NC(=O)[C@H]2[C@H](c3ccc(F)c(Cl)c3)C2(Cl)Cl)c1Cl (relative stereo) [F1104, trans-2,6-Dichloro-3-(2,2-dichloro-3-(3-chloro-4-fluorophenyl)cyclopropane-1-carboxamido)-N-phenylbenzamide] | 50 to 100% | A (80–100) | 50 to 100% |
| CN(C(=O)c1cc(NC(=O)[C@H]2[C@H](c3ccc(F)c(C(F)(F)F)c3)C2(Cl)Cl)ccc1Cl)c1ccc(F)c(N)c1F (relative stereo) [F1112, trans-N-(3-amino-2,4-difluorophenyl)-2-chloro-5-(2,2-dichloro-3-(4-fluoro-3-(trifluoromethyl)phenyl)cyclopropane-1-carboxamido)-N-methylbenzamide] | 50 to 100% | A (80–100) | 50 to 100% |
| C=CCN(C(=O)c1cc(NC(=O)[C@H]2[C@H](c3ccc(F)c(C(F)(F)F)c3)C2(Cl)Cl)ccc1Cl)c1ccc(F)c(N)c1F (relative stereo) [F1113, trans-N-Allyl-N-(3-amino-2,4-difluorophenyl)-2-chloro-5-(2,2-dichloro-3-(4-fluoro-3-(trifluoromethyl)phenyl)cyclopropane-1-carboxamido)benzamide] | 50 to 100% | A (80–100) | 50 to 100% |
| C#CCN(C(=O)c1cc(NC(=O)[C@H]2[C@H](c3ccc(F)c(C(F)(F)F)c3)C2(Cl)Cl)ccc1Cl)c1ccc(F)c(N)c1F (relative stereo) [F1114, trans-N-(3-Amino-2,4-difluorophenyl)-2-chloro-5-(2,2-dichloro-3-(4-fluoro-3-(trifluoromethyl)phenyl)cyclopropane-1-carboxamido)-N-(prop-2-yn-1-yl)benzamide] | 50 to 100% | A (80–100) | 50 to 100% |
| Nc1c(F)ccc(NC(=O)c2cc(NC(=O)[C@H]3[C@H](c4ccc(Br)c(C(F)(F)F)c4)C3(Cl)Cl)ccc2Cl)c1F (relative stereo) [F1116, trans-N-(3-Amino-2,4-difluorophenyl)-5-(3-(4-bromo-3-(trifluoromethyl)phenyl)-2,2-dichlorocyclopropane-1-carboxamido)-2-chlorobenzamide] | 50 to 100% | A (80–100) | 50 to 100% |
| Cc1cc(NCc2ccc(OC(F)(F)F)cc2)ccc1NC(=O)c1cc(NC(=O)[C@H]2[C@H](c3cc(Cl)cc(Cl)c3)C2(Cl)Cl)ccc1Cl (relative stereo) [F1117, trans-2-Chloro-5-(2,2-dichloro-3-(3,5-dichlorophenyl)cyclopropane-1-carboxamido)-N-(2-methyl-4-((4-(trifluoromethoxy)benzyl)amino)phenyl)benzamide] | 50 to 100% | A (80–100) | 50 to 100% |
| O=C(Nc1ccc(F)cc1F)c1cc(NC(=O)[C@H]2[C@H](c3cc(Cl)cc(C(F)(F)F)c3)C2(Cl)Cl)ccc1Cl (relative stereo) [F1118, trans-2-Chloro-5-(2,2-dichloro-3-(3-chloro-5-(trifluoromethyl)phenyl)cyclopropane-1-carboxamido)-N-(2,4-difluorophenyl)benzamide] | 50 to 100% | A (80–100) | 50 to 100% |
| CC(C)(C)OC(=O)Nc1c(F)ccc(NC(=O)c2cc(NC(=O)[C@H]3[C@H](c4cc(Cl)cc(C(F)(F)F)c4)C3(Cl)Cl)ccc2Cl)c1F (relative stereo) [F1119, trans-tert-Butyl-(3-(2-chloro-5-(2,2-dichloro-3-(3-chloro-5-(trifluoromethyl)phenyl)cyclopropane-1-carboxamido)benzamido)-2,6-difluorophenyl)carbamate] | 50 to 100% | A (80–100) | 50 to 100% |
| Nc1c(F)ccc(NC(=O)c2cc(NC(=O)[C@H]3[C@H](c4cc(Cl)cc(C(F)(F)F)c4)C3(Cl)Cl)ccc2Cl)c1F (relative stereo) [F1127, trans-N-(3-Amino-2,4-difluorophenyl)-2-chloro-5-(2,2-dichloro-3-(3-chloro-5-(trifluoromethyl)phenyl)cyclopropane-1-carboxamido)benzamide] | 50 to 100% | A (80–100) | 50 to 100% |
